Assay results: patent publication US6624196B2, “Benzene butyric acids and their derivatives as inhibitors of matrix metalloproteinases” (Warner-Lambert Company, priority 1999, dated 2003)

Key:
[1] = biological target: T1, MMP-2CD (gelatinase A catalytic domain) (Homo sapiens, UniProt P08253, DEL220-393); assay: Thiopeptolide substrate assay, gelatinase A catalytic domain; format: biochemical; conditions: for IC50: thiopeptolide substrate, catalytic domain; for inhibition at 10 µM: read-out: % inhibition of the enzyme MMP-2CD
T1 construct: Experiments were carried out with the catalytic domains of the proteinases
T1 sequence (P08253 with tags, fused parts or gaps DEL220-393): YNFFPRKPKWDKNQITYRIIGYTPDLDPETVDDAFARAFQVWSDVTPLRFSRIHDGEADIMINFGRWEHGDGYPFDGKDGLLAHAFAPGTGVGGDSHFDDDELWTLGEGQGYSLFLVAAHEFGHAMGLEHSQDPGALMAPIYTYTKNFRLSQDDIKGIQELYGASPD
Protocol: (§1) Experiments were carried out with the catalytic domains of the proteinases. […] IC50 values were determined using a thiopeptolide substrate, Ac-Pro-Leu-Gly-thioester-Leu-Leu-Gly-OEt (ye Q. -Z., Johnson L. L., Hupe D. J., and Baragi V., “Purification and Characterization of the Human Stromelysin Catalytic Domain Expressed in Escherichia coli,” Biochemistry, 1992;31:11231-11235; ye Q. -Z., Johnson L. L., yu A. E., and Hupe D., “Reconstructed 19 kDa catalytic domain of gelatinase A is an active proteinase,” Biochemistry, 1995;34:4702-4708.) MMP-13CD was expressed from a synthetic gene and purified from Escherichia coli cell culture according to a previously described method (ye Q. -Z., Johnson L. L., and Baragi V., “Gene synthesis and expression in E. coli for PUMP, a human matrix metalloproteinase,” Biochemical and Biophysical Research Communications, 1992;186:143-149.)

[2] = biological target: T2, MMP-3CD (stromelysin-1 catalytic domain) (Homo sapiens, UniProt P08254); assay: Thiopeptolide substrate assay, stromelysin-1 catalytic domain; format: biochemical; conditions: for IC50: thiopeptolide substrate, catalytic domain; for inhibition at 10 µM: read-out: % inhibition of the enzyme MMP-3CD
T2 construct: Experiments were carried out with the catalytic domains of the proteinases; made in house; host or cells: Escherichia coli
T2 sequence (P08254 100-272 limits assumed): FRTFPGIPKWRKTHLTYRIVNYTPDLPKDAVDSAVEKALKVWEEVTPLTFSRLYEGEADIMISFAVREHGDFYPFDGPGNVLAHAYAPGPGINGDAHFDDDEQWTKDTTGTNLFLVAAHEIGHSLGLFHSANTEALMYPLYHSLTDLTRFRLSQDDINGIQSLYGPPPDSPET
Protocol: as §1

[3] = biological target: T3, MMP-13CD (collagenase-3 catalytic domain) (Homo sapiens, UniProt P45452); assay: Thiopeptolide substrate assay, collagenase-3 catalytic domain; format: biochemical; conditions: for IC50: thiopeptolide substrate, catalytic domain; for inhibition at 10 µM: read-out: % inhibition of the enzyme MMP-13CD
T3 construct: Experiments were carried out with the catalytic domains of the proteinases; made in house; host or cells: Escherichia coli
Protocol: as §1

[4] = 10 μM concentration of inhibitor (footnote a, Examples 8 through 25)

IC50 [1] [µM] | IC50 [2] [µM] | inhibition at 10 µM [1, 4] [%] | inhibition at 10 µM [2, 4] [%] | inhibition at 10 µM [3, 4] [%] | Compound | further results
0.12 | 0.82 |  |  |  | O=C(O)CCC(=O)c1ccc(NC(=O)c2ccc(Cl)cc2)cc1 [Example 26, 4-[4-(4—Chloro-benzoylamino)-phenl]-4-oxo-butyric acid] | IC50 [3]: 24 µM
 |  |  |  |  | CCCCCCCCCC(=O)Nc1ccc(C(=O)CCC(=O)O)cc1 [Example 23] | % inhibition of the enzyme MMP-2CD [1, 4]: 54%; % inhibition of the enzyme MMP-3CD [2, 4]: 39%; % inhibition of the enzyme MMP-13CD [3, 4]: 0%
 |  | 86 | 72 | 9 | O=C(O)CCC(=O)c1ccc(NC(=O)C=Cc2ccccc2)cc1 [Example 19, 4-[4-(Cinnamoylamino)-phenyl]-4-oxo-butyric acid] | 
 |  | 83 | 70 | 11 | CCCCCCC(=O)Nc1ccc(C(=O)CCC(=O)O)cc1 [Example 15, 4-[4-(Heptanoylamino)-phenyl]-4-oxo-butyric acid] | 
 |  | 79 | 66 | 8 | CCCCCCCC(=O)Nc1ccc(C(=O)CCC(=O)O)cc1 [Example 10, 4-[4-(Octanoylamino)-phenyl]-4-oxo-butyric acid] | 
 |  | 75 | 31 | 11 | COc1cccc(C(=O)Nc2ccc(C(=O)CCC(=O)O)cc2)c1 [Example 12, 4-[4-(3-Methoxy-benzoylamino)-phenyl]-4-oxo-butyric acid] | 
 |  | 82 | 38 | 16 | O=C(O)CCC(=O)c1ccc(NC(=O)c2ccc(Cl)c([N+](=O)[O-])c2)cc1 [Example 18, 4-[4-(4—Chloro-3-nitro-benzoylamino)-phenyl]-4-oxo-butyric acid] | 
 |  | 15 | 3 | 0 | O=C(O)CCC(=O)c1ccc(NC(=O)c2cccnc2)cc1 [Example 8, 4-[4-(Pyridin-3-yl-carbonylamino)-phenyl]-4-oxo-butyric acid] | 
0.91 | 19 |  |  |  | O=C(O)CCC(=O)c1ccc(NC(=O)c2ccco2)cc1 [Example 32, 4-[4-(2-Furoylamino)-phenyl]-4-oxo-butyric acid] | 
 |  | 62 | 35 | 0 | CCCC(=O)Nc1ccc(C(=O)CCC(=O)O)cc1 [Example 22, 4-[4-(Butyrylamino)-phenyl]-4-oxo-butyric acid] | 
 |  | 15 | 4 | 0 | COc1cc(OC)cc(C(=O)Nc2ccc(C(=O)CCC(=O)O)cc2)c1 [Example 24, 4-[4-(3,5-Dimethoxy-benzoylamino)-phenyl]-4-oxo-butyric acid] | 
 |  | 93 | 81 | 30 | O=C(O)CCC(=O)c1ccc(NC(=O)c2ccc(Br)cc2)cc1 [Example 20, 4-[4-(4-Bromo-benzoylamino)-phenyl]-4-oxo-butyric acid] | 
9.5 | 8.15 |  |  |  | CCCCC(=O)Nc1ccc(C(=O)CCC(=O)O)cc1 [Example 3, 4—oxo-4-(4-pentanoylamino-phenyl)-butyric acid] | melting point: 153 to 155 °C
 |  | 26 | 11 | 0 | O=C(O)CCC(=O)c1ccc(NC(=O)c2ccc(Cl)cc2Cl)cc1 [Example 13, 4-[4-(2,4-Dichloro-benzoylamino)-phenyl]-4-oxo-butyric acid] | 
 |  | 18 | 13 | 0 | COc1ccccc1C(=O)Nc1ccc(C(=O)CCC(=O)O)cc1 [Example 25, 4-[4-(2-Methoxy-benzoylamino)-phenyl]-4-oxo-butyric acid] | 
0.46 | 2.4 |  |  |  | O=C(O)CCC(=O)c1ccc(NC(=O)c2ccc([N+](=O)[O-])cc2)cc1 [Example 29, 4-[4-(4-Nitro-benzoylamino)-phenyl]-4-oxo-butyric acid] | IC50 [3]: 40 µM
0.93 | 5 |  |  |  | O=C(O)CCC(=O)c1ccc(NC(=O)c2ccc(F)cc2F)cc1 [Example 30, 4-[4-(2,4-Difluoro-benzoylamino)-phenyl]-4-oxo-butyric acid] | 
 | 20 |  |  |  | O=C(O)CCC(=O)c1ccc(NC(=O)C2CCCCC2)cc1 [Example 7, 4-[4-(Cyclohexane-carbonyllamino)-phenyl]-4-oxo-butyric acid] | melting point: 195 to 198 °C

IC50 [1] [µM] | IC50 [2] [µM] | inhibition at 10 µM [1, 4] [%] | inhibition at 10 µM [2, 4] [%] | inhibition at 10 µM [3, 4] [%] | Compound | further results
1.7 | 2.8 |  |  |  | O=C(O)CCC(=O)c1ccc(NC(=O)c2ccc(F)cc2)cc1 [Example 6, 4-[4-(4-Fluoro-benzoylamino)-phenyl]-4-oxo-butyric acid] | IC50 [3]: 85 µM; melting point: 253 to 255 °C
0.07 | 0.34 |  |  |  | COc1ccc(C(=O)Nc2ccc(C(=O)CCC(=O)O)cc2)cc1 [Example 27, 4-[4-(4-Methoxy-benzoylamino)-phenyl]-4-oxo-butyric acid] | IC50 [3]: 9.8 µM
 |  | 26 | 48 | 7 | O=C(O)CCC(=O)c1ccc(NC(=O)CCCc2ccc(Br)cc2)cc1 [Example 14, 4-{4-[4-(4-Bromo-phenyl)-butyrylamino]-phenyl}-4-oxo-butyric acid] | 
 |  | 85 | 75 | 3 | CCCCCCCCC(=O)Nc1ccc(C(=O)CCC(=O)O)cc1 [Example 9, 4-[4-(Nonanoylamino)-phenyl]-4-oxo-butyric acid] | 
52 | 24 |  |  |  | O=C(O)CCC(=O)c1ccc(NC(=O)Cc2ccccc2)cc1 [Example 33, 4—oxo-4-[4-(phenyl-acetylamino)-phenyl]-butyric acid] | 
0.13 | 1.7 |  |  |  | O=C(O)CCC(=O)c1ccc(NC(=O)c2cccs2)cc1 [Example 31, 4—oxo-4-[4-(thiophen-2-yl-carbonylamino)-phenyl]-butyric acid] | IC50 [3]: 19 µM
1.9 | 9.8 |  |  |  | O=C(O)CCC(=O)c1ccc(NC(=O)c2ccccc2F)cc1 [Example 5, 4-[4-(2-Fluoro-benzoylamino)-phenyl]-4-oxo-butyric acid] | melting point: 191 to 193 °C
0.11 | 0.55 |  |  |  | 4-[4-(Benzoylamino)-phenyl]-4-oxo-butyric acid [Example 28] | IC50 [3]: 17 µM
 | 6.6 |  |  |  | O=C(O)CCC(=O)c1ccc(NC(=O)CCc2ccccc2)cc1 [Example 34, 4—oxo-4-[4-(3-phenyl-propionylamino)-phenyl]-butyric acid] | 
 |  | 78 | 23 | 8 | O=C(O)CCC(=O)c1ccc(NC(=O)c2cccc([N+](=O)[O-])c2)cc1 [Example 21, 4-[4-(3-Nitro-benzoylamino)-phenyl]-4-oxo-butyric acid] | 
 |  | 97 | 85 | 60 | CCc1ccc(C(=O)Nc2ccc(C(=O)CCC(=O)O)cc2)cc1 [Example 16, 4-[4-(4-Ethyl-benzoylamino)-phenyl]-4-oxo-butyric acid] | 
41 | 17 |  |  |  | 4-[4-(Carboxy-acetylamino)-phenyl]-4-oxo-butyric acid [Example 36] | 
38 | 13 |  |  |  | O=C(O)CCC(=O)Nc1ccc(C(=O)CCC(=O)O)cc1 [Example 35, 4-[4-(3—Carboxy-propionylamino)-phenyl]-4-oxo-butyric acid] | 
0.41 | 1.1 |  |  |  | 4-Hydroxyimino-4-[(4-methyl-benzoyl)amino-phenyl]-butyric acid [Example 2] | IC50 [3]: 3.8 µM
0.22 | 1.55 |  |  |  | Cc1ccc(C(=O)Nc2ccc(C(=O)CCC(=O)O)cc2)cc1 [Example 1, 4-[4-(4-Methyl-benzoylamino)-phenyl]-4-oxo-butyric acid] | IC50 [3]: 5.8 µM
 |  | 46 | 21 | 9 | CCC(=O)Nc1ccc(C(=O)CCC(=O)O)cc1 [Example 11, 4—oxo-4-[4-(propionylamino)-phenyl]-butyric acid] | 
1.9 | 6.2 |  |  |  | O=C(O)CCC(=O)c1ccc(NC(=O)c2cccc(F)c2)cc1 [Example 4, 4-[4-(3-Fluoro-benzoylamino)-phenyl]-4-oxo-butyric acid] | melting point: 239 to 241 °C

Compound | IC50 [1] [µM] | IC50 [2] [µM] | inhibition at 10 µM [1, 4] [%] | inhibition at 10 µM [2, 4] [%] | inhibition at 10 µM [3, 4] [%] | further results
CCCCOc1ccc(C(=O)Nc2ccc(C(=O)CCC(=O)O)cc2)cc1 [Example 17, 4-[4-(4-Butoxy-benzoylamino)-phenyl]-4-oxo-butyric acid] |  |  | 97 | 78 | 65 | 
